{
  "source": "patent US8895051B2",
  "about": "“Flavoring systems for pharmaceutical compositions and methods of making such compositions” (AbbVie Inc., priority 2000, dated 2014)",
  "key": {"solubility in water": {"experiment": "solubility in water", "type": "physicochemical", "conditions": "room temperature and pressure (approximately 25° C. and 1 atmosphere)"}, "[1]": {"experiment": "solubility in pharmaceutically acceptable solvents and in a co-solvent system", "type": "physicochemical"}},
  "data": [
    {"compound": "Cc1cccc(C)c1OCC(=O)N[C@@H](Cc1ccccc1)[C@@H](O)C[C@H](Cc1ccccc1)NC(=O)[C@H](C(C)C)N1CCCNC1=O", "note": "(relative stereo) [lopinavir, [1S-[1R*,(R*),3R*,4R*]]-N-[4-[[(2,6-dimethylphenoxy)acetyl]amino]-3-hydroxy-5-phenyl-1-(phenylmethyl)pentyl]tetrahydro-alpha-(1-methylethyl)-2-oxo-(2H)-pyrimidine acetamide]", "values": [
      {"measurement": "solubility in water", "setting": "solubility in water", "value": "practically insoluble"},
      {"measurement": "solubility in pharmaceutically acceptable solvents, such as propylene glycol and ethanol", "setting": "[1]; individual solvents, room temperature (about 25° C.)", "value": "adequately soluble"},
      {"measurement": "solubility in a co-solvent system", "setting": "[1]; more than one solvent in the solvent system, versus individual solvents", "value": "significantly improved"}
    ]}
  ]
}
